The target in data set [1] is T1, human AD brain homogenate (ADH) (Homo sapiens, UniProt P05067).
T1 construct: from tissue; host or cells: frontal cortex (grey and white matter) of AD patients, homogenised in PBS
Nature of the data set: Competition binding assay with a tritiated amyloid ligand using brain homogenate from AD patients. The conditions noted are these: competition with 10 nM tritiated amyloid ligand, 100 μg/mL AD frontal cortex homogenate, PBS 0.1% BSA, 3 h, room temperature. Here is the method: A competition assay with a tritiated amyloid ligand was performed in 96-well plates (Greiner bio-one; Cat. 651201; Lot. 06260130) using brain homogenate from AD patients. Homogenates were prepared by homogenizing (Ultra-Turrax, setting 2, 30 s, 24000 rpm) dissected frontal cortex containing grey matter and white matter from AD patients in phosphate buffered saline (PBS, pH 7.4). The homogenate with a concentration of 100 mg wet tissue/mL was divided into aliquots of 300 μL and stored at −80° C. Varying concentrations of the unlabeled test substances were incubated with 100 μg/mL homogenate and 10 nM of the tritiated ligand in PBS, 0.1% BSA (final volume 200 μL) for 3 h at room temperature. Subsequently the binding mixture was filtered through Whatman GF/B filters (wetted with PBS, 0.1% BSA) using a Filtermate 196 harvester (Packard). Filters were then washed twice with PBS, 0.1% BSA and 40 μL scintillator was added to each well before the bound radioactivity was measured in a TopCount devise (Perkin Elmer). Non-specific binding was assessed by adding an excess of the reference ligand to the reaction mixture. Finally IC50 values were calculated with the help of appropriate analysis software.

A further data set addresses T2, amyloid beta plaques (Homo sapiens, UniProt P05067).
T2 construct: Alzheimer's disease patients (AD) with amyloid beta plaques; from tissue; host or cells: fresh frozen and paraffin embedded frontal lobe sections of AD patients
Nature of the data set: Autoradiographical analysis of binding to human brain sections. The conditions noted are these: cortex sections of AD patients; controls from HC and FTD patients; blocking with excess of cold compound. Here is the method:
FIG. 4 Autoradiographical analysis of binding of compound 28 to brain sections from cortex of Alzheimer's disease patients (AD) with amyloid beta plaques. Control sections without amyloid beta pathology stem from healthy volunteers (HC) and fronto-temporal dementia (FTD) patients. Blocking of specific signals was performed with an excess of cold compound. […] Fresh frozen as well as paraffin embedded sections of the frontal lobe from Alzheimer's dementia patients, frontotemporal dementia patients and age matched controls were used for the study. Frozen sections, sliced at 18 μm thickness on a cryostate (Leica, Germany) and paraffin sections, sliced on a sliding microtom (Leica) at a thickness of 6 μm, were mounted onto glass slides (Superfrost Plus, Fa. Menzel, Braunschweig Germany). Frozen sections were allowed to adhere to the slides for several nights at −20° C. The paraffin sections were deparaffinized using routine histological methods. For binding studies sections were incubated with the labeled test compound at 10-20 Bq/μL diluted in 25 mM Hepes buffer, pH 7.4, 0.1% BSA (200-300 μL/slide) for 1.5 h. in a humidified chamber. For blocking experiments an excess of the unlabeled test substance was added to the incubation mixture. […] The air-dried sections were exposed to imaging plates and signals were detected by a phosphoimager device (Fuji BAS5000).

A short description of data set [2]: Biodistribution (brain uptake and wash-out) in mice. The format is in vivo, male NMRI mice. Here is the method: Biodistribution and excretion studies were performed in male NMRI mice (body weight app. 30 g; 3 animals per time point). The animals were kept under normal laboratory conditions at a temperature of 22±2° C. and a dark/light rhythm of 12 h. Food and water were provided ad libitium. During an acclimation period of at least 3 days before the beginning of the study animals were clinically examined to ascertain the absence of abnormal clinical signs.
At 2 min, 5 min, 30 min, 1 h, 4 h post intravenous injection via the tail vein of ca. 185 kBq of the test compound, urine and feces were quantitatively collected. At the same time points, animals were sacrificed by decapitation under isoflurane anaesthesia and organs and tissues of interest were removed for the determination of radioactivity using a gamma-counter. For analysis the decay corrected percentage of the injected dose per tissue weight (% ID/g±standard deviation) was calculated.

By IC50 is commonly meant the concentration at which inhibition is half-maximal. A low value points to greater potency.

T1 sequence (P05067 672-713 limits assumed): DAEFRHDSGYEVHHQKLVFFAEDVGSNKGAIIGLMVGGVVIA
T2 sequence (P05067 672-713 limits assumed): as above

`O=C(C=CNc1ccc(OCF)cc1)c1ccccc1` (mixture of isomers) [Compound 1, (E/Z)-3-{[4-(Fluoromethoxy)phenyl]amino}-1-phenylprop-2-en-1-one]: the IC50 in data set [1] was determined as 9 nM. That is a single-digit nanomolar value.
The same measure, in the same setting: the value for `O=C(C=CNc1ccc(OCCF)cc1)c1ccccc1` (mixture of isomers) [Compound 2, (E/Z)-3-{[4-(2-Fluoroethoxy)phenyl]amino}-1-phenylprop-2-en-1-one] was 17 nM; that for `O=C(C=CNc1ccc(OCCF)cc1)c1ccc(Br)cc1` (mixture of isomers) [Compound 3, (E/Z)-1-(4-Bromophenyl)-3-{[4-(2-fluoroethoxy)phenyl]amino}prop-2-en-1-one] was 13 nM.
On the same count and under the same terms, the value for `COc1ccc(NC=CC(=O)c2ccc(F)cc2)cc1` (mixture of isomers) [Compound 5, (E/Z)-1-(4-Fluorophenyl)-3-[(4-methoxyphenyl)amino]prop-2-en-1-one] was 400 nM; that for `CN(C)c1ccc(NC=CC(=O)c2ccc(F)cc2)cc1` (mixture of isomers) [Compound 6, (E/Z)-3-{[4-(Dimethylamino)phenyl]amino}-1-(4-fluorophenyl)prop-2-en-1-one] was 5 nM; that for `CN(C)c1ccc(NC=CC(=O)c2ccc(F)c(C(F)(F)F)c2)cc1` (mixture of isomers) [Compound 7, (E/Z)-3-{[4-(Dimethylamino)phenyl]amino}-1-[4-fluoro-3-(trifluoromethyl)phenyl]prop-2-en-1-one] was 258 nM.
The same measure, in the same setting: for `CN(C)c1ccc(NC=CC(=O)c2ccc(F)nc2)cc1` (mixture of isomers) [Compound 10, (E/Z)-3-{[4-(Dimethylamino)phenyl]amino}-1-(6-fluoropyridin-3-yl)prop-2-en-1-one] the value was 4 nM; for `COc1ccc(NC=CC(=O)c2ccc(F)nc2)cc1` (mixture of isomers) [Compound 11, (E/Z)-1-(6-Fluoropyridin-3-yl)-3-[(4-methoxyphenyl)amino]prop-2-en-1-one], 28 nM; for `O=C(C=CNc1ccc(F)cc1)c1ccccc1` (mixture of isomers) [Compound 12, (E/Z)-3-[(4-Fluorophenyl)amino]-1-phenylprop-2-en-1-one], 26 nM.
Take `O=C(C=CNc1ccc(F)c(Br)c1)c1ccccc1` (mixture of isomers) [Compound 13, (E/Z)-3-[(3-Bromo-4-fluorophenyl)amino]-1-phenylprop-2-en-1-one]: the half-inhibitory concentration (IC50) in data set [1] was determined as 46 nM. This IC50 is about 1.8-fold higher than that of the compound before.
Still for that read-out and setting: for `O=C(C=CNc1ccc(OCCF)cc1)c1ccc(-c2ccccc2)cc1` (mixture of isomers) [Compound 14, (E/Z)-1-Biphenyl-4-yl-3-{[4-(2-fluoroethoxy)phenyl]amino}prop-2-en-1-one] the value was 140 nM.
On to `CN(C)c1ccc(NC=CC(=O)c2ccc([18F])nc2)cc1` (mixture of isomers) [Compound 28, (E/Z)-3-{[4-(Dimethylamino)phenyl]amino}-1-(6-[^18F]-fluoropyridin-3-yl)prop-2-en-1-one], for which, at amyloid beta plaques, the “Autoradiographic binding to brain sections (in words)” value is on record as “plaque-specific signals”. Further, the “Brain uptake and elimination of the radioactive background signal from the brain (in words)” value in data set [2] (healthy mouse brain, devoid of plaques) is “advantageous rapid elimination of the radioactive background signal from the brain”. In addition, the “Brain uptake at 2 min” value in data set [2] (mice, 2 min after intravenous injection, [18F] signal, healthy brain) is 7.66 % ID/g. Also, the “Brain uptake at 30 min” value in data set [2] (mice, 30 min after intravenous injection, [18F] signal, healthy brain) was 0.78 % ID/g. In data set [2] (mice, intravenous injection, healthy brain), the “Brain wash-out ratio [% ID/g at 2 min]/[% ID/g at 30 min]” value was 9.8.
As to `O=C(/C=C\Nc1ccc(OCCCF)cc1)c1ccccc1` [Compound 4, (Z)-3-{[4-(3-Fluoropropoxy)phenyl]amino}-1-phenylprop-2-en-1-one], the IC50 in data set [1] is 18 nM.

The record behind these values is US20120237446A1, “Compounds for binding and imaging amyloid plaques and their use” (BAYER PHARMA AKTIENGESELLSCHAFT, priority 2005, published 2012).
